{"source": "patent US12404348B2", "about": "“Bifunctional chimeric molecules for labeling of kinases with target binding moieties and methods of use thereof” (The Brigham and Women's Hospital, Inc., priority 2021, dated 2025)", "origin": "cited, not measured here", "key": {"NF-κB Pathway": {"system": "NF-κB Pathway", "conditions": "U(37 cells)"}, "Recombinant PKCζ": {"target": "T1, Recombinant PKCζ (Homo sapiens, UniProt Q05513)", "T1 sequence (Q05513 1-592)": "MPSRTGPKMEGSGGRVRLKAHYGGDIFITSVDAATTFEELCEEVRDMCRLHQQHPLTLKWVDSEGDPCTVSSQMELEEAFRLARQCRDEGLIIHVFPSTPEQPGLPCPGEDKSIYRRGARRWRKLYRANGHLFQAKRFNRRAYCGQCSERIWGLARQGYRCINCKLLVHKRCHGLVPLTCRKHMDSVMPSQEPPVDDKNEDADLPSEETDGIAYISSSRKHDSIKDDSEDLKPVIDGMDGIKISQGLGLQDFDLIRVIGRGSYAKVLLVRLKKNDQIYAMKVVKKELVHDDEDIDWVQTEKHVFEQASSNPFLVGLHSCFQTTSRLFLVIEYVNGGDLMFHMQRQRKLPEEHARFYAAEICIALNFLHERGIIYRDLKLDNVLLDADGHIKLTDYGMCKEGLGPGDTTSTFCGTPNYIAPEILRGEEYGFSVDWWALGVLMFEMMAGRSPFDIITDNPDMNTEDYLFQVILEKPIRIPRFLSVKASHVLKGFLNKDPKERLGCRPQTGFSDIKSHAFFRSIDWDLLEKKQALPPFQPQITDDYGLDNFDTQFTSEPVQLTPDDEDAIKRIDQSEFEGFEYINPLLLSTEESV"}, "PKCl": {"target": "T2, PKCl (Homo sapiens, UniProt P41743)", "T2 sequence (P41743 1-596)": "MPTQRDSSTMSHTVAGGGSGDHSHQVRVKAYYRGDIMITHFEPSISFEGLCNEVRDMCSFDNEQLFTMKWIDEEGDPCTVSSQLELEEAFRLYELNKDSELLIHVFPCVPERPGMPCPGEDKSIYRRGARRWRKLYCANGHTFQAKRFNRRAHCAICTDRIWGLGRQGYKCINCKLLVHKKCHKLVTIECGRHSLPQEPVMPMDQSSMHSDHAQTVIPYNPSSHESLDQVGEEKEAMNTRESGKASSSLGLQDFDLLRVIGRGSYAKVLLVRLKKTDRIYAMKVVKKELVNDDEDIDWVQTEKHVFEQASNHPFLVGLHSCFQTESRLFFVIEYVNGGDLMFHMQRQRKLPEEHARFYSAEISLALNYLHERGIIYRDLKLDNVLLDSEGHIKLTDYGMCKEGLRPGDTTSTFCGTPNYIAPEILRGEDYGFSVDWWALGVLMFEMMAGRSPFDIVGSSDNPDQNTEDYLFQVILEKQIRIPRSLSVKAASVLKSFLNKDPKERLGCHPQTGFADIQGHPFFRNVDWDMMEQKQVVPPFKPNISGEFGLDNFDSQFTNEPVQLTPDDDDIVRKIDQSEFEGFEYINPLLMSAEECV"}, "PDK1": {"target": "T3, PDK1 (Homo sapiens, UniProt O15530)", "T3 sequence (O15530 1-556)": "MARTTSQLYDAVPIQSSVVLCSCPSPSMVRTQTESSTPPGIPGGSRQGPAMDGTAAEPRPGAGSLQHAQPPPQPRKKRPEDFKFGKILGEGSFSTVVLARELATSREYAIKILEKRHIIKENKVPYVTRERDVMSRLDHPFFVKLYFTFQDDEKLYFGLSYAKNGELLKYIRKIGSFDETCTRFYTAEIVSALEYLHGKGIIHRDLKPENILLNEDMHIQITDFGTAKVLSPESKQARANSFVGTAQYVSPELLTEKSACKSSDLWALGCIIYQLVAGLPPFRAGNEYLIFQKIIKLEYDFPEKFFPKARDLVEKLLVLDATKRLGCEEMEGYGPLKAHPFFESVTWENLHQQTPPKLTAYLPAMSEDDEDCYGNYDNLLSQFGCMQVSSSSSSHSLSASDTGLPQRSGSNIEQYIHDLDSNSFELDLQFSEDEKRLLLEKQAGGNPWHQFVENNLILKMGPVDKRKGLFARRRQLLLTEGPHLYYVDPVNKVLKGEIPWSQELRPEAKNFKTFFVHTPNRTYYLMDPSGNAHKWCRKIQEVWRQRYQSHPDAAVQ"}, "AKT1 [1]": {"target": "T4, AKT1 (Homo sapiens, UniProt P31749)", "T4 sequence (P31749 whole entry)": "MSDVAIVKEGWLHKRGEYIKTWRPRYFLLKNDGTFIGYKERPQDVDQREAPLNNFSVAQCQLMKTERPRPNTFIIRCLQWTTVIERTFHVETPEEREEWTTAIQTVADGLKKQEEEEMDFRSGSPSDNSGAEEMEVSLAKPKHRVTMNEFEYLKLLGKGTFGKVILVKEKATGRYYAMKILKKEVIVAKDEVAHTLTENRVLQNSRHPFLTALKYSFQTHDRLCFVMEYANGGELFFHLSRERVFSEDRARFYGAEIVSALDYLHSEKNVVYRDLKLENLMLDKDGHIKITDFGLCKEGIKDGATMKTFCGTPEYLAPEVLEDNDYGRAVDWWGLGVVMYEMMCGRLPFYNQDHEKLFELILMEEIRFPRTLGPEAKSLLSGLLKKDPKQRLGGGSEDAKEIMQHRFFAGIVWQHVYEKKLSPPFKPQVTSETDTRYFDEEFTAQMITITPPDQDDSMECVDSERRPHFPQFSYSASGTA"}, "AKT1 [2]": {"target": "T4, AKT1", "remark": "listed apart in the source"}}}
{"smiles": "CC(C)(C)C1=NN(c2ccc(F)cc2)C(c2ccc(O)cc2)C1", "note": "(centres unmarked) [1b]", "values": [{"measurement": "NF-κB reporter gene assay % inhibin at 5 μM", "setting": "NF-κB Pathway", "result": 63.8, "unit": "%"}]}
{"smiles": "CC(C)(C)C1=NN(c2ccc(Br)cc2)C(c2ccc(O)cc2)C1", "note": "(centres unmarked) [1c]", "values": [{"measurement": "NF-κB reporter gene assay % inhibin at 5 μM", "setting": "NF-κB Pathway", "result": 58.4, "unit": "%"}]}
{"smiles": "Cc1ccc(N2N=C(C(C)(C)C)CC2c2ccc(O)cc2)cc1", "note": "(centres unmarked) [1e]", "values": [{"measurement": "NF-κB reporter gene assay % inhibin at 5 μM", "setting": "NF-κB Pathway", "result": 62.9, "unit": "%"}]}
{"smiles": "CC(C)c1ccc(N2N=C(C(C)(C)C)CC2c2ccc(O)cc2)cc1", "note": "(centres unmarked) [1f]", "values": [{"measurement": "cell-free assay % inhibin at 62.5 μM", "setting": "Recombinant PKCζ", "result": 54.9, "unit": "%"}]}
{"smiles": "CC(C)(C)C1=NN(c2ccc(C(=O)O)cc2)C(c2ccc(O)cc2)C1", "note": "(centres unmarked) [1g]", "values": [{"measurement": "NF-κB reporter gene assay % inhibin at 5 μM", "setting": "NF-κB Pathway", "result": 40.7, "unit": "%"}, {"measurement": "cell-free assay % inhibin at 62.5 μM", "setting": "Recombinant PKCζ", "result": 47.9, "unit": "%"}]}
{"smiles": "CC(C)(C)C1=NN(c2cccc(Cl)c2)C(c2ccc(O)cc2)C1", "note": "(centres unmarked) [1h]", "values": [{"measurement": "PKCl % inhibn at 20 μM", "setting": "PKCl", "result": 43.5, "unit": "%"}, {"measurement": "NF-κB reporter gene assay % inhibin at 5 μM", "setting": "NF-κB Pathway", "result": 64.6, "unit": "%"}]}
{"smiles": "CC(C)(C)C1=NN(c2cccc(F)c2)C(c2ccc(O)cc2)C1", "note": "(centres unmarked) [1i]", "values": [{"measurement": "PKCl % inhibn at 20 μM", "setting": "PKCl", "result": 19.3, "unit": "%"}, {"measurement": "NF-κB reporter gene assay % inhibin at 5 μM", "setting": "NF-κB Pathway", "result": 73.5, "unit": "%"}]}
{"smiles": "CC(C)(C)C1=NN(c2cccc(C(F)(F)F)c2)C(c2ccc(O)cc2)C1", "note": "(centres unmarked) [1j]", "values": [{"measurement": "PKCl % inhibn at 20 μM", "setting": "PKCl", "result": 17.0, "unit": "%"}, {"measurement": "NF-κB reporter gene assay % inhibin at 5 μM", "setting": "NF-κB Pathway", "result": 89.7, "unit": "%"}, {"measurement": "IC50", "setting": "NF-κB Pathway; read-out: NF-κB reporter gene assay IC50 ± SD", "result": "2.7 ± 0.32", "unit": "µM"}]}
{"smiles": "Cc1cccc(N2N=C(C(C)(C)C)CC2c2ccc(O)cc2)c1", "note": "(centres unmarked) [1k]", "values": [{"measurement": "PKCl % inhibn at 20 μM", "setting": "PKCl", "result": 13.9, "unit": "%"}, {"measurement": "NF-κB reporter gene assay % inhibin at 5 μM", "setting": "NF-κB Pathway", "result": 73.7, "unit": "%"}]}
{"smiles": "CC(C)(C)C1=NN(c2ccccc2Cl)C(c2ccc(O)cc2)C1", "note": "(centres unmarked) [1l]", "values": [{"measurement": "NF-κB reporter gene assay % inhibin at 5 μM", "setting": "NF-κB Pathway", "result": 23.5, "unit": "%"}, {"measurement": "cell-free assay % inhibin at 62.5 μM", "setting": "Recombinant PKCζ", "result": 57.1, "unit": "%"}]}
{"smiles": "CC(C)(C)C1=NN(c2ccccc2F)C(c2ccc(O)cc2)C1", "note": "(centres unmarked) [1m]", "values": [{"measurement": "NF-κB reporter gene assay % inhibin at 5 μM", "setting": "NF-κB Pathway", "result": 48.7, "unit": "%"}, {"measurement": "cell-free assay % inhibin at 62.5 μM", "setting": "Recombinant PKCζ", "result": 57.6, "unit": "%"}]}
{"smiles": "CC(C)(C)C1=NN(c2ccc(Cl)cc2Cl)C(c2ccc(O)cc2)C1", "note": "(centres unmarked) [1n]", "values": [{"measurement": "NF-κB reporter gene assay % inhibin at 5 μM", "setting": "NF-κB Pathway", "result": 50.2, "unit": "%"}, {"measurement": "cell-free assay % inhibin at 62.5 μM", "setting": "Recombinant PKCζ", "result": 71.0, "unit": "%"}]}
{"smiles": "CC(C)(C)C1=NN(c2ccc(F)cc2F)C(c2ccc(O)cc2)C1", "note": "(centres unmarked) [1o]", "values": [{"measurement": "NF-κB reporter gene assay % inhibin at 5 μM", "setting": "NF-κB Pathway", "result": 51.8, "unit": "%"}, {"measurement": "cell-free assay % inhibin at 62.5 μM", "setting": "Recombinant PKCζ", "result": 68.0, "unit": "%"}]}
{"smiles": "Cc1ccc(N2N=C(C(C)(C)C)CC2c2ccc(O)cc2)c(C)c1", "note": "(centres unmarked) [1p]", "values": [{"measurement": "NF-κB reporter gene assay % inhibin at 5 μM", "setting": "NF-κB Pathway", "result": 41.5, "unit": "%"}, {"measurement": "cell-free assay % inhibin at 62.5 μM", "setting": "Recombinant PKCζ", "result": 59.9, "unit": "%"}]}
{"smiles": "CC(C)(C)C1=NN(c2ccc(F)c(F)c2)C(c2ccc(O)cc2)C1", "note": "(centres unmarked) [1s]", "values": [{"measurement": "PKCl % inhibn at 20 μM", "setting": "PKCl", "result": 23.7, "unit": "%"}]}
{"smiles": "Oc1ccc(C2CC(c3ccccc3O)=NN2c2ccc(Cl)cc2)cc1O", "note": "(centres unmarked) [4g]", "values": [{"measurement": "PKCl % inhibn at 20 μM", "setting": "PKCl", "result": 44.1, "unit": "%"}]}
{"smiles": "O=C(O)/C=C(/CCc1cccc(Cl)c1)c1ccccc1", "note": "[Compound 3Z]", "values": [{"measurement": "Amax", "setting": "PDK1", "result": 2.2, "unit": "fold"}]}
{"smiles": "COc1ccccc1Cn1c(-c2cccnc2N)nc2cccnc21", "note": "[Compound 3c]", "values": [{"measurement": "Akt1 ΔTm", "setting": "AKT1 [1]", "result": "no shift"}]}
{"smiles": "COc1ccccc1Cn1c(-c2cccnc2N)nc2cc(Br)cnc21", "note": "[Compound 3d]", "values": [{"measurement": "IC50", "setting": "AKT1 [2]", "result": "> 300", "unit": "µM"}, {"measurement": "Akt1 ΔTm", "setting": "AKT1 [1]", "result": "no shift"}]}
{"smiles": "CC(C)(C)c1ccc(-n2c(-c3ccncc3)nc3cccnc32)cc1", "note": "[Compound 3f]", "values": [{"measurement": "IC50", "setting": "AKT1 [2]", "result": 185, "unit": "µM"}, {"measurement": "Akt1 ΔTm", "setting": "AKT1 [1]", "result": "no shift"}]}
{"smiles": "CC(C)(C)c1ccc(-n2c(-c3cccnc3N)nc3cc(Br)cnc32)cc1", "note": "[Compound 3g]", "values": [{"measurement": "IC50", "setting": "AKT1 [2]", "result": "> 300", "unit": "µM"}, {"measurement": "Akt1 ΔTm", "setting": "AKT1 [1]", "result": 0.9, "unit": "°C"}]}
